# Data published in PMC5841354, “Gomesin peptides prevent proliferation and lead to the cell death of devil facial tumour disease cells” (Cell Death Discovery, 2018).
# Where a SMILES comes first, the peptide text is derived from it. Bridges are numbered along the chain shown (N, C = ends). [ ]: non-standard residue; d: D form. pGlu = O=C1CC[C@@H](C(=O)O)N1
# Columns and labels:
# [1] = tested on: DFTD4 cells; assay: MTT cell viability, DFTD4 cells; type: cell-based, Tasmanian devil (Sarcophilus harrisii); conditions: 48 h; for cell viability / anti-proliferative activity in DFTD4 cells: 50 µg/mL; for anti-proliferative / cytotoxic activity compared with AgGom: DFTD cell lines (DFTD1, DFTD2, DFTD4)
# Excerpt: (§1) All DFTD (DFTD1, DFTD2, and DFTD4) and fibroblast (FIBS) cell lines were obtained from the Department of Primary Industries, Parks, Water, and Environment, State Government of Tasmania (DPIPWE) and were established as part of management plan and adhere to a standard operating practice. The DFTD1 cell line with catalogue number 3287 is derived from the tumour from a female devil (tag number: 06/2887) collected at St Marys, Eastern Tasmania in 2006. DFTD2 cell line with catalogue number 8961 was developed from a tumour from a male devil (tag number: 12/0625) collected at Kempton, Northern Tasmania in 2012. The DFTD4 cell line with catalogue number 4099 was developed from the tumour of a male devil (tag number: 07/0192) that was collected at Freycinet, east coast of Tasmania in 2007 and Fibroblasts cells (FIBS) with catalogue number 497 were obtained from a healthy devil male pup (tag number: 05/0962) held at Mount Pleasant, Southeastern of Tasmania in 2005.
# (§2) Devil Facial Tumor cancer cell lines, and the control Tasmanian Devil fibroblast (FIBS) healthy cell line were maintained in a humidified incubator at 35 °C and 5% CO2. The DFTD cell lines were cultured in RPMI-1640 medium supplemented with 10% FCS, and 2 mM Glutamax. The FIBS was grown in GIBCO AmnioMAX-C100 Basal Medium liquid, containing AmnioMAX-C100 supplement. Penicillin/streptomycin (PS) (100 U/ml each) was added to both media. The cells were passaged at ~90% confluency. Functional studies were performed with passages up to 20. All cell lines were mycoplasma free.
# (§3) Cell viability as an indicator of the number of viable and proliferative cells was measured by MTT according to the protocol of the manufacturer (Sigma-Aldrich, Australia). In brief, 8000 DFTD and 5000 FIBS cells/well were seeded in a 96-flat adherent microtiter well plate for 24 h to allow cell adhesion. Gomesin peptides and/or analogues were then added to the plates to measure MTT reduction. Plates were measured after 48 h at 540 nm absorbance in a microplate reader (BIOTEK PowerWave XS, USA). 0.1% SDS was used as a positive control (100% toxicity). A row of untreated cells was used to define 100% viability and blank wells containing only media were used to extract background. The concentration of gomesin peptides causing 50% inhibition (EC50) in DFTD and FIBS cells was determined using GraphPad Prism Software (Graphpad Inc, USA).
# [2] = tested on: DFTD; conditions: human chemotherapeutic agents in Tasmanian devils; cited from earlier work
# Excerpt: With no treatment available for DFTD, scientists maintain captive, disease-free breeding populations that are released into the wild. Major research efforts are focused on understanding the molecular mechanisms of DFTD and why tumour cells fail to stimulate an immune response in the Tasmanian Devil, including the dramatic downregulation of the expression of Major Histocompatibility Complex (MHC) Class I genes[5]–[9]. Previous trials to treat DFTD using human chemotherapeutic agents, such as vincristine, doxorubicin, and carboplatin have proven to be unsuccessful[10],[11]. In this study, we pos ...
# [3] = tested on: FIBS cells; assay: MTT cell viability, non-transformed fibroblasts (FIBS); type: cell-based, Tasmanian devil (Sarcophilus harrisii); conditions: 50 µg/mL, 48 h
# Excerpt: as §1, §2, §3
# [4] = tested on: DFTD4 cells; assay: Annexin V-FITC/PI apoptosis and necrosis; type: cell-based, Tasmanian devil (Sarcophilus harrisii); conditions: 10 µM, 24 h, positive control
# Protocol: Apoptosis in DFTD4 cells treated with AgGom or HiGom was measured using an Annexin V-FITC Apoptosis detection kit in combination with a Canto II high-throughput fluorescence-activated cell sorter (BD Biosciences, USA). Briefly, cells were seeded at a density of 100,000 cells/well in a round-bottom 96-well plate and treated with 50 µg/mL AgGom or HiGom for 24 h. The cells were collected mechanically, washed twice with PBS and once with wash buffer provided by the manufacturer. Cells were stained simultaneously with FITC-labelled annexin V and PI for 30 min in the dark and at room temperature before being analysed.
compound,measurement,setting,value
"ZCRRACYKQRCVTYCRGR-NH2 (bicyclic or more) [AgGomL5A, AgGom analogue L5A]",cell viability / anti-proliferative activity in DFTD4 cells,[1],eradicated the anti-proliferative activity
COc1cccc2c1C(=O)c1c(O)c3c(c(O)c1C2=O)C[C@@](O)(C(=O)CO)C[C@@H]3O[C@H]1C[C@H](N)[C@H](O)[C@H](C)O1 [doxorubicin],outcome of trials to treat DFTD,[2],unsuccessful
"CC[C@H](C)[C@@H]1NC(=O)[C@H](CCCNC(=N)N)NC(=O)[C@H](CCCNC(=N)N)NC(=O)[C@@H](NC(=O)[C@@H]2CCC(=O)N2)CSSC[C@@H](C(=O)N[C@@H](CCCNC(=N)N)C(=O)NCC(=O)N[C@@H](CCCNC(=N)N)C(N)=O)NC(=O)[C@H](Cc2ccc(O)cc2)NC(=O)[C@H]([C@@H](C)O)NC(=O)[C@H](Cc2ccccc2)NC(=O)[C@@H]2CSSC[C@H](NC1=O)C(=O)NCC(=O)N[C@@H](CCCNC(=N)N)C(=O)N[C@@H](CCCNC(=N)N)C(=O)N[C@@H](CCCNC(=N)N)C(=O)N2 [SpGom] ([pGlu]CRRICGRRRCFTYCRGR-NH2; disulfide 2-15, 6-11)",anti-proliferative / cytotoxic activity compared with AgGom,[1],higher anti-proliferative activity than AgGom
same,deleterious effects on FIBS viability,[3],minimal deleterious effects
"CC[C@@]1(O)C(=O)OCc2c1cc1n(c2=O)Cc2cc3ccccc3nc2-1 [camptothecin, reference compound]",late apoptosis,[4],> 30%
"CC(C)C[C@@H]1NC(=O)[C@H](CCCNC(=N)N)NC(=O)[C@H](CCCNC(=N)N)NC(=O)[C@@H](NC(=O)[C@@H]2CCC(=O)N2)CSSC[C@@H](C(=O)N[C@@H](CCCNC(=N)N)C(=O)NCC(=O)N[C@@H](CCCNC(=N)N)C(N)=O)NC(=O)[C@H](Cc2ccc(O)cc2)NC(=O)[C@H]([C@@H](C)O)NC(=O)[C@H](C(C)C)NC(=O)[C@@H]2CSSC[C@H](NC1=O)C(=O)N[C@@H](Cc1ccc(O)cc1)C(=O)N[C@@H](CCCCN)C(=O)N[C@@H](CCCNC(=N)N)C(=O)N[C@@H](CCCNC(=N)N)C(=O)N2 [AgGomKR] ([pGlu]CRRLCYKRRCVTYCRGR-NH2; disulfide 2-15, 6-11)",anti-proliferative / cytotoxic activity compared with AgGom,[1],higher anti-proliferative activity than AgGom
same,deleterious effects on FIBS viability,[3],minimal deleterious effects
CC[C@]1(O)C[C@H]2CN(CCc3c([nH]c4ccccc34)[C@@](C(=O)OC)(c3cc4c(cc3OC)N(C=O)[C@H]3[C@@](O)(C(=O)OC)[C@H](OC(C)=O)[C@]5(CC)C=CCN6CC[C@]43[C@@H]65)C2)C1 [vincristine],outcome of trials to treat DFTD,[2],unsuccessful
N.N.O=C([O-])C1(C(=O)[O-])CCC1.[Pt+2] [carboplatin],outcome of trials to treat DFTD,[2],unsuccessful
"ZCRRLCYKQRCATYCRGR-NH2 (bicyclic or more) [AgGomV12A, AgGom analogue V12A]",cell viability / anti-proliferative activity in DFTD4 cells,[1],eradicated the anti-proliferative activity
"CC(C)C[C@@H]1NC(=O)[C@H](CCCNC(=N)N)NC(=O)[C@H](CCCNC(=N)N)NC(=O)[C@@H](NC(=O)[C@@H]2CCC(=O)N2)CSSC[C@@H](C(=O)N[C@@H](CCCNC(=N)N)C(=O)NCC(=O)N[C@@H](CCCNC(=N)N)C(N)=O)NC(=O)[C@H](Cc2ccc(O)cc2)NC(=O)[C@H]([C@@H](C)O)NC(=O)[C@H](C(C)C)NC(=O)[C@@H]2CSSC[C@H](NC1=O)C(=O)N[C@@H](Cc1ccc(O)cc1)C(=O)N[C@@H](CCCCN)C(=O)N[C@@H](CC(N)=O)C(=O)N[C@@H](CCCNC(=N)N)C(=O)N2 [AgGomKN] ([pGlu]CRRLCYKNRCVTYCRGR-NH2; disulfide 2-15, 6-11)",anti-proliferative / cytotoxic activity compared with AgGom,[1],higher anti-proliferative activity than AgGom
same,deleterious effects on FIBS viability,[3],minimal deleterious effects
"ZCARLCYKQRCVTYCRGR-NH2 (bicyclic or more) [AgGomR3A, AgGom analogue R3A]",cell viability / anti-proliferative activity in DFTD4 cells,[1],eradicated the anti-proliferative activity
